This passage reports Activity and IC50 results from ChEMBL document CHEMBL1155966, “Efficient synthesis of (+/-)-parasitenone, a novel inhibitor of NF-kappaB” (Bioorg Med Chem Lett, 2009).

What is called IC50 is the midpoint of a concentration-inhibition curve.

Active and inactive are the calls of the source. The calls are words filed in the database; no cut-off is given here.

The test system of series [1] is RAW264.7. Description: Antiinflammatory activity in mouse RAW264.7 cells assessed as inhibition of LPS-stimulated nitric oxide production at 10 ug/ml treated for 1 hr before LPS challenge measured after 24 hrs by Griess reagent method. The format is functional, cell-based. On the technique in general: Nitrite, measured by Griess reagent, commonly stands in for NO production.

Series [2] relates to RAW264.7. The series is described as follows: Inhibition of NF-kappaB transcriptional activity in LPS-stimulated mouse RAW264.7 cells treated for 1 hr before LPS challenge measured after 6 hrs by luciferase reporter gene assay. In kind it is cell-based. A general note: A reporter such as luciferase makes a cellular process visible.
Series [3] deals with Radical scavenging activity. The series is described as follows: Antioxidant activity assessed as DPPH radical scavenging activity. The format is functional. (Loss of DPPH colour is used to gauge radical scavenging.)
Series [4] in a line: Antioxidant activity assessed as peroxynitrite radical scavenging activity. In kind it is functional.
For series [5], the system named is RAW264.7. Description: Antiinflammatory activity in mouse RAW264.7 cells assessed as inhibition of LPS-stimulated iNOS expression treated for 1 hr before LPS challenge measured after 24 hrs by immunoblotting. The format is functional, cell-based.
Series [6] relates to RAW264.7. Description: Antiinflammatory activity in mouse RAW264.7 cells assessed as inhibition of LPS-stimulated nitric oxide production treated for 1 hr before LPS challenge measured after 24 hrs by Griess reagent method. In kind it is functional, cell-based.
For series [7], the system named is RAW264.7. The series is described as follows: Growth inhibition of mouse RAW264.7 cells at 10 ug/ml after 48 hrs by trypan blue exclusion assay. The format is cell-based. The conditions noted are these: raw264.7, 48 h.
Series [8] has as its system RAW264.7. Description: Cytotoxicity against mouse RAW264.7 cells assessed as reduction of cell viability at 30 ug/ml after 48 hrs by trypan blue exclusion assay. The format is cell-based. The conditions noted are these: raw264.7, 48 h.

Turning to `O=C(O)c1ccccc1O`, the result with RAW264.7 [1] was inactive.
Regarding `O=C(NC1=CC(=O)[C@H]2O[C@H]2[C@H]1O)c1ccccc1O` [DEHYDROXYMETHYLEPOXYQUINOMICIN], in the series with RAW264.7 [2], the outcome was Active. The IC50 is 57 µM in series [3] and 52.6 µM in series [4].
Regarding `O=C1C=C(CO)[C@H](O)[C@@H]2O[C@H]12` [PARASITENONE], the Activity result is “Dose-dependent effect” in the series with RAW264.7 [5], “Dose-dependent effect” with RAW264.7 [6], “Active” in the series on RAW264.7 [7] and “Active” with RAW264.7 [8]. The outcome in the series with RAW264.7 [2] and with RAW264.7 [1] was Active.
